Source: article PMC4965013, “Open Source Drug Discovery with the Malaria Box Compound Collection for Neglected Diseases and Beyond” (PLoS Pathogens, 2016)
Where two headings read alike, the source gives them in different places. One block for each compound: values may come before it.

Key:
P. falciparum = assay: EC50 listed in S2 Table Metabolomics (used to set the concentration tested); format: cell-based; details: Plasmodium falciparum; EC50 used for Factor_XEC50 in metabolomics; read-out: EC50_nM
P. falciparum 3D7 = assay: [3H]-hypoxanthine growth inhibition, modified HCO3- or O2; format: cell-based; details: for IC50: Plasmodium falciparum
[1] = test system: P. falciparum 3D7 trophozoites; assay: Metabolomic fingerprint profiling LC-MS; format: cell-based, Plasmodium falciparum; design: UDP-D-glucose / ADP-D-glucose: unit not given here; details: for Acetyllysine / N-acetyl-L-ornithine / N-carbamoyl-L-aspartate / NADPH / dAMP / dCMP / dTDP / dTMP / dTTP / dihydroorotate / orotate / DLH / DLS/SDL/SID / PD / PEE / PVNF / 3-phosphoglycerate / ADP-D-glucose / ATP / CDP / D-sedoheptulose-1/7-phosphate / FAD / GMP / NAD+ / NADP+ / Octoluse Bisphosphate / Pyroglutamic acid / UDP-D-glucose / UDP-D-glucuronate / UDP-N-acetyl-glucosamine / UDP / UMP / UTP / a-ketoglutarate / citrate/isocitrate / cytidine / dATP / dGMP/AMP / fumarate / glucose-1/6-phosphate / glycerate / guanine / guanosine / hypoxanthine / indole / inosine / nicotinate / ornithine / phosphoenolpyruvate / pyruvate / ribose-phosphate / sarcosine/alanine / sn-glycerol-3-phosphate / succinate/methylmalonic acid / uridine / xanthosine: S2 Table Metabolomics; for Acetyllysine: metabolite Acetyllysine; for N-acetyl-L-ornithine: metabolite N-acetyl-L-ornithine; for N-carbamoyl-L-aspartate: metabolite N-carbamoyl-L-aspartate; for NADPH: metabolite NADPH; for dAMP: metabolite dAMP; for dCMP: metabolite dCMP; for dTDP: metabolite dTDP; for dTMP: metabolite dTMP; for dTTP: metabolite dTTP; for dihydroorotate: metabolite dihydroorotate; for orotate: metabolite orotate; for DLH: peptide DLH; for DLS/SDL/SID: peptide DLS/SDL/SID; for PD: peptide PD; for PEE: peptide PEE; for PVNF: peptide PVNF; for 3-phosphoglycerate: metabolite 3-phosphoglycerate; for ADP-D-glucose: metabolite ADP-D-glucose; for ATP: metabolite ATP; for CDP: metabolite CDP; for CDP / D-sedoheptulose-1/7-phosphate / GMP / Octoluse Bisphosphate / UDP / UMP / UTP / citrate/isocitrate / dGMP/AMP / fumarate / glucose-1/6-phosphate / glycerate / guanine / guanosine / inosine / pyruvate / sarcosine/alanine / succinate/methylmalonic acid / uridine / xanthosine: change in metabolite level after compound treatment; for D-sedoheptulose-1/7-phosphate: metabolite D-sedoheptulose-1/7-phosphate; for FAD: metabolite FAD; for GMP: metabolite GMP; for NAD+: metabolite NAD+; for NADP+: metabolite NADP+; for Octoluse Bisphosphate: metabolite Octoluse Bisphosphate; for Pyroglutamic acid: metabolite Pyroglutamic acid; for UDP-D-glucose: metabolite UDP-D-glucose; for UDP-D-glucuronate: metabolite UDP-D-glucuronate; for UDP-N-acetyl-glucosamine: metabolite UDP-N-acetyl-glucosamine; for UDP: metabolite UDP; for UMP: metabolite UMP; for UTP: metabolite UTP; for a-ketoglutarate: metabolite a-ketoglutarate; for citrate/isocitrate: metabolite citrate/isocitrate; for cytidine: metabolite cytidine; for dATP: metabolite dATP; for dGMP/AMP: metabolite dGMP/AMP; for fumarate: metabolite fumarate; for glucose-1/6-phosphate: metabolite glucose-1/6-phosphate; for glycerate: metabolite glycerate; for guanine: metabolite guanine; for guanosine: metabolite guanosine; for hypoxanthine: metabolite hypoxanthine; for indole: metabolite indole; for inosine: metabolite inosine; for 2_3-Diphosphoglyceric acid / 4-phosphopantothenate / 6-phospho-D-gluconate / FMN / IMP / Pyrophosphate / Sedoheptoluse bisphosphate / cyclic-AMP / glutathione disulfide / lactate / myo-inositol: metabolite level change after treatment; for nicotinate: metabolite nicotinate; for ornithine: metabolite ornithine; for phosphoenolpyruvate: metabolite phosphoenolpyruvate; for pyruvate: metabolite pyruvate; for ribose-phosphate: metabolite ribose-phosphate; for sarcosine/alanine: metabolite sarcosine/alanine; for sn-glycerol-3-phosphate: metabolite sn-glycerol-3-phosphate; for succinate/methylmalonic acid: metabolite succinate/methylmalonic acid; for uridine: metabolite uridine; for xanthosine: metabolite xanthosine

EC50 (P. falciparum): 406 nM
Structure (SMILES): CCN(CC)CCNc1ncnc2c1[nH]c1ccc(Cl)cc12 [MMV396703]
fold change (IC50reduced/IC50normal) (P. falciparum 3D7): 2.6
IC50 (P. falciparum 3D7; 3D7, read-out: P. falciparum 3D7 IC50 HCO3- (2g/L), standard media): 326 nM
IC50 (P. falciparum 3D7; 3D7, HCO3- reduced media, read-out: P. falciparum 3D7 IC50 HCO3- reduced): 851 nM
Acetyllysine [1]: -0.2691
N-acetyl-L-ornithine [1]: -0.2168
N-carbamoyl-L-aspartate [1]: 1.148
NADPH [1]: -0.09375
dAMP [1]: 0.7031
dCMP [1]: -0.6066
dTDP [1]: 0.1301
dTMP [1]: 0.2768
dTTP [1]: -0.448
dihydroorotate [1]: 1.736
orotate [1]: -0.221
DLH [1]: -2.825
DLS/SDL/SID [1]: -3.008
PD [1]: -0.5054
PEE [1]: -0.1284
PVNF [1]: -2.309
3-phosphoglycerate [1]: -0.08336
ADP-D-glucose [1]: -0.05094
ATP [1]: -0.4333
CDP [1]: 0.1613
D-sedoheptulose-1/7-phosphate [1]: 0.02906
FAD [1]: -0.01537
GMP [1]: -0.5327
NAD+ [1]: 0.6915
NADP+ [1]: -0.1108
Octoluse Bisphosphate [1]: -0.5568
Pyroglutamic acid [1]: -0.07773
UDP-D-glucose [1]: 0.04104
UDP-D-glucuronate [1]: -0.19
UDP-N-acetyl-glucosamine [1]: 0.01931
UDP [1]: 0.1008
UMP [1]: -0.1897
UTP [1]: -0.3667
a-ketoglutarate [1]: -0.2121
citrate/isocitrate [1]: -0.02741
cytidine [1]: -0.169
dATP [1]: -0.3924
dGMP/AMP [1]: 0.4109
fumarate [1]: 0.899
glucose-1/6-phosphate [1]: 0.3195
glycerate [1]: 0.2766
guanine [1]: 0.5966
guanosine [1]: 0.5739
hypoxanthine [1]: -0.03794
indole [1]: -0.04008
inosine [1]: 0.01185
2_3-Diphosphoglyceric acid [1]: -0.2785
4-phosphopantothenate [1]: 0.1971
6-phospho-D-gluconate [1]: -0.09007
FMN [1]: -0.3587
IMP [1]: 0.3624
Pyrophosphate [1]: -0.1133
Sedoheptoluse bisphosphate [1]: 0.1128
cyclic-AMP [1]: -0.07748
glutathione disulfide [1]: -0.04771
lactate [1]: -0.382
myo-inositol [1]: -0.001865
nicotinate [1]: 0.1485
ornithine [1]: 0.2269
phosphoenolpyruvate [1]: -0.03548
pyruvate [1]: -0.182
ribose-phosphate [1]: -0.3286
sarcosine/alanine [1]: -0.1738
sn-glycerol-3-phosphate [1]: -0.2165
succinate/methylmalonic acid [1]: -0.02068
uridine [1]: -0.05174
xanthosine [1]: -0.494

EC50 (P. falciparum): 196 nM
Structure (SMILES): CCCN(CCC)CC(O)COc1ccccc1C(=O)Nc1ccccc1 (stereo not drawn) [MMV006455]
Acetyllysine [1]: -1.84
N-acetyl-L-ornithine [1]: -1.412
N-carbamoyl-L-aspartate [1]: -1.358
NADPH [1]: 1.245
dAMP [1]: 1.1553
dCMP [1]: -0.6709
dTDP [1]: 0.7128
dTMP [1]: 1.286
dTTP [1]: -0.4381
dihydroorotate [1]: -1.042
orotate [1]: -1.326
DLH [1]: -3.333
DLS/SDL/SID [1]: -1.242
PD [1]: -1.741
PEE [1]: -6.259
PVNF [1]: -1.503
3-phosphoglycerate [1]: 0.4787
ADP-D-glucose [1]: 0.3541
ATP [1]: 0.3304
CDP [1]: 0.5091
D-sedoheptulose-1/7-phosphate [1]: 0.2206
FAD [1]: 0.7675
GMP [1]: -0.1404
NAD+ [1]: 0.6496
NADP+ [1]: 1.103
Octoluse Bisphosphate [1]: 0.1196
Pyroglutamic acid [1]: -0.5503
UDP-D-glucose [1]: 0.16
UDP-D-glucuronate [1]: -0.0808
UDP-N-acetyl-glucosamine [1]: 0.351
UDP [1]: 0.8505
UMP [1]: -0.5223
UTP [1]: -1.889
a-ketoglutarate [1]: -0.6936
citrate/isocitrate [1]: -1.1034
cytidine [1]: 1.29
dATP [1]: -1.015
dGMP/AMP [1]: 0.4722
fumarate [1]: -1.1903
glucose-1/6-phosphate [1]: 2.348
glycerate [1]: 0.5071
guanine [1]: 0.09569
guanosine [1]: -0.9351
hypoxanthine [1]: 0.1926
indole [1]: -0.2645
inosine [1]: 0.3717
2_3-Diphosphoglyceric acid [1]: 0.5499
4-phosphopantothenate [1]: 0.373
6-phospho-D-gluconate [1]: 0.458
FMN [1]: 0.8429
IMP [1]: 0.8206
Pyrophosphate [1]: -0.6263
Sedoheptoluse bisphosphate [1]: 0.2316
cyclic-AMP [1]: 0.1549
glutathione disulfide [1]: 0.487
lactate [1]: 1.338
myo-inositol [1]: 3.347
nicotinate [1]: 0.09812
ornithine [1]: -0.2237
phosphoenolpyruvate [1]: 0.01215
pyruvate [1]: 0.467
ribose-phosphate [1]: -0.04809
sarcosine/alanine [1]: -0.7349
sn-glycerol-3-phosphate [1]: -0.3619
succinate/methylmalonic acid [1]: -0.7549
uridine [1]: 0.2304
xanthosine [1]: -2.143

EC50 (P. falciparum): 293 nM
Structure (SMILES): OC(CNC1CCCCC1)Cn1c2ccccc2c2ccccc21 (stereo not drawn) [MMV009063]
Acetyllysine [1]: -0.9697
N-acetyl-L-ornithine [1]: -0.4154
N-carbamoyl-L-aspartate [1]: -0.3154
NADPH [1]: 0.37
dAMP [1]: 0.9178
dCMP [1]: 4.938
dTDP [1]: 0.7098
dTMP [1]: 0.6703
dTTP [1]: 1.896
dihydroorotate [1]: -0.3265
orotate [1]: -0.5164
DLH [1]: -0.8674
DLS/SDL/SID [1]: -0.2423
PD [1]: -0.8841
PEE [1]: -0.7244
PVNF [1]: -0.6115
3-phosphoglycerate [1]: 0.9312
ADP-D-glucose [1]: 0.2307
ATP [1]: 0.3671
CDP [1]: 0.5148
D-sedoheptulose-1/7-phosphate [1]: -0.5559
FAD [1]: 0.5708
GMP [1]: 0.12
NAD+ [1]: -0.1605
NADP+ [1]: 0.3102
Octoluse Bisphosphate [1]: 0.2421
Pyroglutamic acid [1]: 0.1616
UDP-D-glucose [1]: 0.2936
UDP-D-glucuronate [1]: 0.2553
UDP-N-acetyl-glucosamine [1]: 0.3811
UDP [1]: 0.491
UMP [1]: 0.4628
UTP [1]: 0.409
a-ketoglutarate [1]: -0.1494
citrate/isocitrate [1]: 0.2484
cytidine [1]: 0.7064
dATP [1]: 0.1129
dGMP/AMP [1]: 0.3842
fumarate [1]: -0.3431
glucose-1/6-phosphate [1]: 1.039
glycerate [1]: 0.4301
guanine [1]: 0.4492
guanosine [1]: 0.3938
hypoxanthine [1]: 0.2685
indole [1]: -0.01895
inosine [1]: 0.305
2_3-Diphosphoglyceric acid [1]: 0.9003
4-phosphopantothenate [1]: 0.6116
6-phospho-D-gluconate [1]: 0.5165
FMN [1]: 0.5888
IMP [1]: 0.4443
Pyrophosphate [1]: -0.0661
Sedoheptoluse bisphosphate [1]: 0.4491
cyclic-AMP [1]: 0.4153
glutathione disulfide [1]: 0.4569
lactate [1]: 0.8013
myo-inositol [1]: 0.939
nicotinate [1]: 0.31
ornithine [1]: 0.3762
phosphoenolpyruvate [1]: 0.7676
pyruvate [1]: 0.735
ribose-phosphate [1]: 0.3548
sarcosine/alanine [1]: -0.09066
sn-glycerol-3-phosphate [1]: 0.5324
succinate/methylmalonic acid [1]: -0.07148
uridine [1]: 0.5909
xanthosine [1]: -0.08621
